# Results published in patent US4866055A, “Cephalosporin derivatives and their crystalline derivatives” (Mochida Pharmaceutical Co., Ltd., priority 1986, dated 1989).
# Like-named read-outs stand apart in the source and are kept apart here.
# Columns and labels:
# Solubility = format: physicochemical; details: trisodium salt, amorphous solid; for parenteral use
# Stability (storage) = format: physicochemical
# [1] = tested on: Escherichia coli NIHJ JC 2; assay: Antibacterial activity in vitro, agar plate dilution method (MIC); format: cell-based; details: NIHJJC2, 37° C., 20 hours, Mueller Hinton agar
# Description: (§1) Antibacterial activity in vitro was determined in accordance with the agar plate dilution method.
# (§2) A platinum loop each of test bacteria (10^6 cells/ml), cultured in Mueller Hinton broth, was inoculated on Mueller Hinton agar plates which contained test compounds at various concentrations. After cultivating at 37° C. for 20 hours, the minimum inhibitory concentration (MIC μg/ml) was determined.
# [2] = tested on: Klebsiella pneumoniae IFO 3317; assay: as above; format: cell-based
# Description: as §1, §2
# [3] = tested on: Proteus morganii IFO 3848; assay: as above; format: cell-based; details: Morganella morganii
# Description: as §1, §2
# [4] = tested on: Pseudomonas aeruginosa 13; assay: as above; format: cell-based
# Description: as §1, §2
# [5] = tested on: Serratia marcescens IFO 3759; assay: as above; format: cell-based
# Description: as §1, §2
# Escherichia coli 67 = assay: Protection against systemic infection in mice; format: in vivo, ICR mice; details: iv, 168 h, i.p. infection, i.v. compound 1 hour after infection, survival at 1 week
# Description: (§3) Protection ability against systemic infection was determined as follows. An aqueous suspension of test bacteria was intraperitoneally injected into 10 four week old ICR mice. One hour after the infection, test compounds were intravenously administered. The number of surviving mice was counted 1 week after injection to determine the dose at which 50% of the test animals were alive (ED50 : mg/kg).
# [6] = tested on: Klebsiella pneumoniae IFO 3317; assay: Protection against systemic infection in mice; format: in vivo, ICR mice; details: for ED50: IFO3317, iv, 168 h
# Description: as §3
# [7] = tested on: Proteus mirabilis IFO 3849; assay: Protection against systemic infection in mice; format: in vivo, ICR mice; details: IFO3849, iv, 168 h
# Description: as §3
# [8] = tested on: Pseudomonas aeruginosa 13; assay: Protection against systemic infection in mice; format: in vivo, ICR mice; details: for ED50: 168 h
# Description: as §3
# Serratia marcescens 274 = assay: Protection against systemic infection in mice; format: in vivo, ICR mice; details: 168 h
# Description: as §3
# [9] = tested on: Staphylococcus aureus 242; assay: Protection against systemic infection in mice; format: in vivo, ICR mice; details: 168 h
# Description: as §3
# [10] = Acute toxicity, LD50 by the Probit method; details: in vivo, iv
# Description: Next, LD50 of representative examples of the compounds of the present invention is shown in Table 3 herein LD50 was determined in accordance with the Probit method.
# [11] = tested on: Staphylococcus aureus Smith; assay: Antibacterial activity in vitro, agar plate dilution method (MIC); format: cell-based; details: 37° C., 20 hours, Mueller Hinton agar
# Description: as §1, §2
# [12] = tested on: bacterial strains except Pseudomonas aeruginosa; assay: Antibacterial activity in vitro, agar plate dilution method, all strains except Pseudomonas aeruginosa; format: cell-based; details: Tables 1-a through 1-b
# Description: as §1, §2
# experimental infection = assay: Protection of animals from experimental infection (overall); format: in vivo, ICR mice; details: Tables 2-a through 2-b, vs reference compound
# Description: as §3
# [13] = IFO3317, Klebsiella pneumoniae IFO 3317, 37° C., 20 hours, Mueller Hinton agar, read-out: MIC
# [14] = IFO3848, Proteus morganii IFO 3848, 37° C., 20 hours, Mueller Hinton agar, read-out: MIC
# [15] = Pseudomonas aeruginosa 13, 37° C., 20 hours, Mueller Hinton agar, read-out: MIC
# [16] = IFO3759, Serratia marcescens IFO 3759, 37° C., 20 hours, Mueller Hinton agar, read-out: MIC
# [17] = Klebsiella pneumoniae IFO 3317, i.p. infection, i.v. compound 1 hour after infection, survival at 1 week, read-out: ED50
# [18] = Proteus mirabilis IFO 3849, i.p. infection, i.v. compound 1 hour after infection, survival at 1 week, read-out: ED50
# [19] = iv, Pseudomonas aeruginosa 13, i.p. infection, i.v. compound 1 hour after infection, survival at 1 week, read-out: ED50
# [20] = iv, Serratia marcescens 274, i.p. infection, i.v. compound 1 hour after infection, survival at 1 week, read-out: ED50
# [21] = iv, Staphylococcus aureus 242, i.p. infection, i.v. compound 1 hour after infection, survival at 1 week, read-out: ED50
smiles,measurement,setting,value
Cc1cc(SCC2=C(C(=O)[O-])N3C(=O)[C@@H](NC(=O)/C(=N\OCc4cc(O)c(O)cc4C(=O)[O-])c4csc(N)n4)[C@H]3SC2)n2nc(C(=O)[O-])nc2n1.[Na+].[Na+].[Na+],solubility,Solubility,excellent solubility
same,stability,Stability (storage); as bulk materials or as parenteral preparations,not necessarily sufficient
"CC(C)(O/N=C(\C(=O)N[C@@H]1C(=O)N2C(C(=O)[O-])=C(C[n+]3ccccc3)CS[C@H]12)c1csc(N)n1)C(=O)O [CAZ, Ceftazidime]",MIC,[1],0.2 µg/mL
same,MIC,"[2]; Klebsiella pneumoniae, IFO3317, 20 h",≤ 0.05 µg/mL
same,MIC,"[3]; IFO3848, 20 h",0.2 µg/mL
same,MIC,"[4]; Pseudomonas aeruginosa, 13, 20 h",1.56 µg/mL
same,MIC,"[5]; Serratia marcescens, IFO3759, 20 h",≤ 0.05 µg/mL
same,ED50,Escherichia coli 67,6.48 mg/kg
same,ED50,[6]; Klebsiella pneumoniae,10.6 mg/kg
same,ED50,[7]; Proteus mirabilis,4.36 mg/kg
same,ED50,"[8]; Pseudomonas aeruginosa, 13, iv",145 mg/kg
same,ED50,"Serratia marcescens 274; Serratia marcescens, 274, iv",3.62 mg/kg
same,ED50,"[9]; Staphylococcus aureus, 242, iv",> 100 mg/kg
same,LD50,[10],> 4000 mg/kg
"Cc1cc(SCC2=C(C(=O)O)N3C(=O)[C@@H](NC(=O)/C(=N\OCc4cc(O)c(O)cc4C(=O)O)c4csc(N)n4)[C@H]3SC2)n2nc(C(=O)O)nc2n1 [Compound 1, (6R,7R)-7-[2-(2-amino-4-thiazolyl)-2-[Z-[(2-carboxy-4,5-dihydroxyphenyl)methyl]oxyimino]acetamido]-3-[(2-carboxy-5-methyl-s-triazolo[1,5-a]pyrimidin-7-yl)thiomethyl]-8-oxo-5-thia-1-azabicyclo[4.2.0]-oct-2-ene-2-carboxylic acid]",MIC,[1],0.39 µg/mL
same,MIC,[2]; [13],≤ 0.05 µg/mL
same,MIC,[3]; [14],0.39 µg/mL
same,times as potent as Ceftazidime,"[4]; MIC, Pseudomonas aeruginosa, vs Ceftazidime",more than 10 times
same,times as potent as the reference compound,"[4]; MIC, Pseudomonas aeruginosa, vs reference compound",more than 10 times
same,MIC,[4]; [15],0.1 µg/mL
same,MIC,[5]; [16],0.1 µg/mL
same,MIC,[11],1.56 µg/mL
same,potency relative to the reference compound in vitro,[12],about equipotent to the reference compound
same,ED50,Escherichia coli 67,1.05 mg/kg
same,ED50,[6]; [17],0.27 mg/kg
same,times as potent as the reference compound,"[6]; infection with Klebsiella pneumoniae, vs reference compound",more than 10 times
same,ED50,[7]; [18],5.07 mg/kg
same,times as potent as the reference compound,"[8]; infection with Pseudomonas aeruginosa, vs reference compound",more than 10 times
same,ED50,[8]; [19],61.8 mg/kg
same,ED50,Serratia marcescens 274; [20],0.77 mg/kg
same,ED50,[9]; [21],7.68 mg/kg
same,potency in protecting the animals from experimental infection relative to the reference compound,experimental infection,evidently more potent than the reference compound
same,LD50,[10],> 4000 mg/kg
"CC(=O)Oc1cc(C(=O)O)c(CO/N=C(\C(=O)N[C@@H]2C(=O)N3C(C(=O)O)=C(CSc4cc(C)nc5nc(C(=O)O)nn45)CS[C@H]23)c2csc(N)n2)cc1O [Reference compound, (6R,7R)-7-[2-(2-amino-4-thiazolyl)-2-[Z-[(4-acetoxy-2-carboxy-5-hydroxyphenyl)methy]oxyimino]acetamido]-3-[(2-caboxy-5-methyl-s-triazolo[1,5-a]pyrimidin-7-yl)thiomethyl]-8-oxo-5-thia-1-azabicyclo[4.2.0]oct-2-ene-2-carboxylicacid]",MIC,[1],0.39 µg/mL
same,MIC,[2]; [13],≤ 0.05 µg/mL
same,MIC,[3]; [14],0.2 µg/mL
same,MIC,[4]; [15],1.56 µg/mL
same,MIC,[5]; [16],≤ 0.05 µg/mL
same,MIC,[11],1.56 µg/mL
same,ED50,Escherichia coli 67,7.66 mg/kg
same,ED50,[6]; [17],3.58 mg/kg
same,ED50,[7]; [18],20.1 mg/kg
same,ED50,[8]; [19],> 500 mg/kg
same,ED50,Serratia marcescens 274; [20],2.56 mg/kg
same,ED50,[9]; [21],12.4 mg/kg
"Cc1cc(SCC2=C(C(=O)O)N3C(=O)[C@@H](NC(=O)/C(=N\OCc4cc(O)c(O)cc4C(=O)O)c4csc(N)n4)[C@H]3SC2)n2nc(C(=O)O)nc2n1 [crystalline hydrated compound, crystalline hydrated (6R,7R)-7-[2-(2-amino-4-thiazol-yl)-2-[Z-[(2-carboxy-4,5-dihydroxyphenyl)methyl]oxyimino]acetamido]-3-[(2-carboxy-5-methyl-s-triazolo[1,5-a]pyrimidin-7-yl)thiomethyl]-8-oxo-5-thia-1-azabicyclo[4.2.0]oct-2-ene-2-carboxylic acid]",stability on storage,Stability (storage); crystalline hydrate,increased stability on storage
"Cn1nnnc1SCC1=C(C(=O)O)N2C(=O)[C@@H](NC(=O)[C@H](O)c3ccccc3)[C@H]2SC1 [CMD, Cefamandole]",ED50,[9]; [21],8.94 mg/kg
